Earlier results on 1 molecule are cited in patent US20080200497A1, “Hepatitis C Inhibitor Peptide Analogs” (priority 2005, published 2008).

The subject of this data set is hepatitis C virus. The note with it: two day clinical trial, patients infected with the hepatitis C virus.

As for `COc1ccc2c(O[C@@H]3C[C@H]4C(=O)N[C@]5(C(=O)O)C[C@H]5/C=C\CCCCC[C@H](NC(=O)OC5CCCC5)C(=O)N4C3)cc(-c3csc(NC(C)C)n3)nc2c1` [BILN 2061], the “reduction of viral loads” value is “effective in rapidly reducing viral loads”.
